Laboratory results taken from PMC12315041 (ACS medicinal chemistry letters, 2025).

Molecular target: T1, RIPK1 (receptor-interacting protein kinase 1) (Homo sapiens, UniProt Q13546)
T1 sequence (Q13546 1-671): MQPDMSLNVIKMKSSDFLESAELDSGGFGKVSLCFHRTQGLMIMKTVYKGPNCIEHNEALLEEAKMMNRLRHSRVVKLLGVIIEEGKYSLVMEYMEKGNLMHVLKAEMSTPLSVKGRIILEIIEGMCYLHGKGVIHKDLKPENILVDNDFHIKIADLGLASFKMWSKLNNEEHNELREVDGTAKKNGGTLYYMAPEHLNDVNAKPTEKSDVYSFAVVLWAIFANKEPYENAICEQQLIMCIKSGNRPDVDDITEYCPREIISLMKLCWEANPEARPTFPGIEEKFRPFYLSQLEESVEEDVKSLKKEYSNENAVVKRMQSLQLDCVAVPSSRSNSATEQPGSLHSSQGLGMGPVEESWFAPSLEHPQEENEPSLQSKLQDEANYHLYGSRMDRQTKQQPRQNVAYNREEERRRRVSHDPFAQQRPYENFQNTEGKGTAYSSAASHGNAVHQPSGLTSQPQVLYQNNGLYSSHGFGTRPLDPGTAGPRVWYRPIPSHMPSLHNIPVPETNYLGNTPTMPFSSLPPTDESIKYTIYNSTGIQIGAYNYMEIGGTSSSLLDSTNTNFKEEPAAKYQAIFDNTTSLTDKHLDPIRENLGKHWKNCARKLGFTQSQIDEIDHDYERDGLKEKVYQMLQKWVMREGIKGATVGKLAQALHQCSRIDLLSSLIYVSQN
Experiment: TR-FRET saturation binding

Kd: 443 nM
Structure (SMILES): Nc1ncnc2c1c(-c1ccc3c(c1)CCN3C(=O)Cc1cccc(OC(F)(F)F)c1)cn2CCCNC(=O)CCc1ccc2n1[B-](F)(F)[N+]1=C(c3ccc[nH]3)C=CC1=C2 [T2-BDP-589, T2-BODIPY-589]
